According to patent publication US8076308B2, “Inhibition of autophagy genes in cancer chemotherapy” (British Columbia Cancer Agency, priority 2005, dated 2011):
Read-outs that look alike come from different tables or passages of the source.

Experiments:
[1] = system: MCF-7 cells; assay: Detection of autophagy in tamoxifen treated MCF-7 cells (MDC, LC3-GFP, TEM); assay type: cell-based, human
Source text: Assays for autophagy and cell viability: We used flow cytometry based methods and microscopy to analyze autophagy levels. Cells were stained with MDC and LT-G and first analyzed manually by fluorescence microscopy and then by flow cytometry using a BD® flow cytometer (FACSVANTAGE™ SE, BD, TFL FACS Facility, BCCRC). […] To confirm that these two populations represent a functional difference in autophagy levels, RNA and protein from these FACS sorted cell were subjected to QRT-PCR for the MAP1LC3b gene, a commonly accepted marker for autophagy (16). In addition, the two populations were analyzed by Transmission Electron Microscopy (TEM) for the presence of autophagosomes (9).
FIG. 8. […] B. MCF-7 cells treated with 10^-6 M tamoxifen. In panels A, B, & D, cells are stained with the autolysosomal marker, MDC, detected as punctate staining (e.g. arrows in B).
In panels C and D, autophagy is detected by LC3-GFP localization. C. Punctate GFP-LC3 in transient transfected MCF7 cells treated with TAM. […] In panel E-H, TEM analyses indicate that autolysosomes are abundant in tamoxifen treated MCF7 cell sorted MDC (+) populations but not untreated MCF7 cells. Representative image of an untreated MCF7 cell is shown in (E) with a magnified view of the same cell in (G). Panels (F) and (H) show a cell treated with 5 uM tamoxifen (72 hrs).

[2] = system: FM3A murine breast tumour cells; conditions: literature (10); cited from earlier work
[3] = system: MCF7 human breast carcinoma cells; conditions: literature (9), cited from earlier work

CC/C(=C(\c1ccccc1)c1ccc(OCCN(C)C)cc1)c1ccccc1 [Tamoxifen]
Autolysosomes by TEM ([1]; MCF7 cell treated with 5 uM tamoxifen (72 hrs), versus untreated): Numerous autolysosomes
Induction of autophagy (MDC punctate staining, LC3-GFP localization) ([1]; MCF-7 cells, 10^-6 M tamoxifen): induces autophagy
Induction of autophagy [2]: induce autophagy
Induction of autophagy ([3]; listed as tamoxifen): undergo autophagy
Induction of autophagy [3]: induce autophagy
